Test results taken from US11839613B2, “Pyrimidine derivatives as PGE2 receptor modulators” (IDORSIA PHARMACEUTICALS LTD, priority 2017, dated 2023).

Experiments:
EP2 = EP2 (Homo sapiens (Human), UniProt P43116); test: hEP2 cAMP assay (SF295 glioblastoma cells, HTRF cAMP); assay type: cell-based; conditions: antagonistic activity
Method in brief: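 PGE2-driven cAMP accumulation was measured by HTRF in SF295 cells, which express endogenous EP2 only. Cells in assay buffer with 2 mM IBMX were pre-incubated 45 min at RT, then incubated 30 min at RT. Detection used competition between cellular cAMP and d2-cAMP for a cryptate anti-cAMP antibody.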

PTGER2 (EP2) = PTGER2 (EP2) (Homo sapiens (Human), UniProt P43116); test: hEP2 b-arrestin assay (PathHunter HEK 293 PTGER2 b-arrestin cells); assay type: cell-based; conditions: antagonistic activity, beta-arrestin assay; read-out: hEP2 b-arr IC50
Description: Plate is pre-incubated 15 minutes at 37° C. Then five microliters of PGE2 (final conc. 5 μM) are transferred into the assay plate. Plate is incubated 120 minutes at 37° C.
(each concentration is measured in duplicate)

PTGER4 (EP4) = PTGER4 (EP4) (Homo sapiens (Human), UniProt P35408)
EP4 = EP4 (Homo sapiens (Human), UniProt P35408); test: hEP4 cAMP assay (BT549 breast cancer cells, HTRF cAMP); assay type: cell-based; conditions: antagonistic activity, PGE2 6 nM
Method in brief: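 BT549 breast cancer cells (endogenous EP4) in HBSS/20 mM HEPES/0.2% BSA/2 mM IBMX preincubated 45 min at RT with compound, then stimulated 30 min at RT with 6 nM PGE2 (final). cAMP read by competitive HTRF immunoassay, signal inversely proportional to cAMP.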

EP4, sequence (P35408 whole entry): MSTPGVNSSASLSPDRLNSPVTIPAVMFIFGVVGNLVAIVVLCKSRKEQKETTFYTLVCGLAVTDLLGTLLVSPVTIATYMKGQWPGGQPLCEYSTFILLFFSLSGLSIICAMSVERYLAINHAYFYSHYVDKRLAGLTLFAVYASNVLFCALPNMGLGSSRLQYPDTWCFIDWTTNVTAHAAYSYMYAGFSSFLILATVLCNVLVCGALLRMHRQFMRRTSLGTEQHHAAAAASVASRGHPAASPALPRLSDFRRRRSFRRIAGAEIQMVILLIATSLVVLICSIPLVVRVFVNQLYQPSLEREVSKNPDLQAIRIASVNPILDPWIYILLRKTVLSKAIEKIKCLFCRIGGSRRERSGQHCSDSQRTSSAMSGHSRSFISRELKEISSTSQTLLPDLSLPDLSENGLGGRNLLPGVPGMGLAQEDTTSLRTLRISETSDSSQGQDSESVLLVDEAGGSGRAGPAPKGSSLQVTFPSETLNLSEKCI
PTGER4 (EP4), sequence (P35408 whole entry): as above
PTGER2 (EP2), sequence (P43116 whole entry): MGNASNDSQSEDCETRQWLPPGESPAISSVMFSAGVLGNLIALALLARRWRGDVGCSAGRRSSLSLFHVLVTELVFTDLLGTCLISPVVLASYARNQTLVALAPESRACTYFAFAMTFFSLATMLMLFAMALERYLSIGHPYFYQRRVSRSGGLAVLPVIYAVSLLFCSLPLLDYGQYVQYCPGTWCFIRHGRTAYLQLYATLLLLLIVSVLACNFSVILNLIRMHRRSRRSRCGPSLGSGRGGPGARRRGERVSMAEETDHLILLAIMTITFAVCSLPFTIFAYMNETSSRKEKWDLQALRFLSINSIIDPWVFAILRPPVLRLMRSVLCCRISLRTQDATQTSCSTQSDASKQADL
EP2, sequence (P43116 whole entry): as above

Row | IC50 (EP2) [nM] | IC50 (PTGER2 (EP2)) [nM] | IC50 (PTGER4 (EP4)) [nM] | IC50 (EP4) [nM] | Structure (SMILES) | IC50 (EP4; BT549 cells) [nM]
1 | 142 | 45 | 105 | 206 | CCOc1cc2ccccc2cc1CCNc1cc(-c2ccc(C(=O)O)c(OCC)c2)ncn1 [Ex 188] | 
2 | 176 | 127 | 300 | 224 | COc1cc2c(cc1CCNc1cc(-c3ccc(CC(=O)O)c(SC)c3)ncn1)OCCO2 [Ex 197] | 
3 | 29 | 12 | 633 | 186 | CSc1cc(-c2cc(NCCc3ccc4sccc4c3C)ncn2)ccc1C(=O)O [Ex 204] | 
4 | 248 | 832 | 143 | 249 | CCOc1cc(-c2cc(NCCc3ccc4scc(C#N)c4c3)ncn2)ccc1CC(=O)O [Ex 209] | 
5 | 50 | 255 | 340 | 253 | CSc1cc(-c2cc(NCCc3ccc4scc(C#N)c4c3)ncn2)ccc1C(=O)O [Ex 212] | 
6 | 61 | 84 | 260 | 173 | COc1cc2sccc2cc1CCNc1cc(-c2ccc(CC(=O)O)c(SC)c2)ncn1 [Ex 224] | 
7 | 160 | 388 | 908 | 335 | CSc1cc(-c2cc(NCCc3ccc4scnc4c3)ncn2)ccc1C(=O)O [Ex 237] | 
8 | 2100 | 493 | 147 | 355 | CSc1cc(-c2cc(NCCc3ccc4cccc(F)c4c3)ncn2)ccc1C(=O)O [Ex 243] | 
9 | 158 | 521 | 671 | 373 | CCOc1cc(-c2cc(NCCc3ccc4scc(C#N)c4c3)ncn2)ccc1C(=O)O [Ex 253] | 
10 | 855 | 1300 | 186 | 424 | COc1c(CCNc2cc(-c3cc(F)c(C(=O)O)c(OC4CCC4)c3)ncn2)c(F)c(F)c2cc(C)oc12 [Ex 262] | 
11 | 47 | 25 | 688 | 342 | Cc1c(CCNc2cc(-c3ccc(C(=O)O)c(OC4CCC4)c3)ncn2)ccc2sccc12 [Ex 268] | 
12 | 6510 | 1640 | 588 | 434 | CCOc1cc(-c2cc(NCCc3ccc4cccc(F)c4c3)ncn2)ccc1C(=O)O [Ex 269] | 
13 | 5660 | 1520 | 404 | 435 | CSc1cc(-c2cc(NCCc3c(F)cc4ccccc4c3F)ncn2)ccc1CC(=O)O [Ex 270] | 
14 | 140 | 289 | 221 | 455 | N#Cc1csc2ccc(CCNc3cc(-c4ccc(C(=O)O)c(OC5CCC5)c4)ncn3)cc12 [Ex 273] | 
15 | 358 | 144 | 964 | 525 | CCOc1cc(-c2cc(NCCc3ccc4sccc4c3C)ncn2)ccc1CC(=O)O [Ex 289] | 
16 | 61 | 34 | 1600 | 583 | CCOc1cc(-c2cc(NCCc3ccc4sccc4c3C)ncn2)ccc1C(=O)O [Ex 296] | 
17 | 232 | 57 | 1350 | 653 | CSc1cc(-c2cc(NCCc3cc4ccsc4cc3C)ncn2)ccc1CC(=O)O [Ex 305] | 
18 | 9230 | 3460 | 378 | 701 | CCOc1cc(-c2cc(NCCc3ccc4cccc(F)c4c3)ncn2)ccc1CC(=O)O [Ex 314] | 
19 | 160 | 126 | 1070 | 910 | CSc1cc(-c2cc(NCCc3ccc4sccc4c3C)ncn2)ccc1CC(=O)O [Ex 326] | 
20 | 268 | 100 | 12 | 3 | CCOc1cc(-c2cc(NCCc3c(F)cc4ccccc4c3F)ncn2)sc1C(=O)O [Ex 335] | 

Row | Structure (SMILES) | IC50 (EP2) [nM] | IC50 (PTGER2 (EP2)) [nM] | IC50 (PTGER4 (EP4)) [nM] | IC50 (EP4) [nM] | IC50 (EP4; BT549 cells) [nM]
21 | COc1cc2c(cc1CCNc1cc(-c3ccc(C(=O)O)c(CC(C)C)c3)ncn1)OCCO2 [Example 416] | 123 | 245 | 82 |  | 83
